ChEMBL document CHEMBL5465560, “Selectivity Literature for EUbOPEN Chemogenomic Library” (2024)

Key:
[1] = tested on: Fibroblast growth factor receptor 3 (Homo sapiens), P22607 [G697C]; assay: (§1) Selectivity interaction (KinomeScan (DiscoverX)) EUB0001079a FGFR3; conditions: at 1 µM
[2] = biological target: Fibroblast growth factor receptor 3 (Homo sapiens, UniProt P22607); assay: as §1; conditions: at 1 µM
[3] = biological target: Tyrosine-protein kinase Fes/Fps (Homo sapiens) (UniProt P07332); assay: Selectivity interaction (Kinase panel (Z-LYTE Assay)) EUB0001632a FES; conditions: at 10 µM
[4] = biological target: T1, Eukaryotic elongation factor 2 kinase (Homo sapiens) (UniProt O00418); assay: Selectivity interaction (ActivX KiNativ screen (kinase selectivity in THP-1 cell lysates)) EUB0000639a EEF2K; type: subcellular; conditions: lysate
T1 sequence (whole entry): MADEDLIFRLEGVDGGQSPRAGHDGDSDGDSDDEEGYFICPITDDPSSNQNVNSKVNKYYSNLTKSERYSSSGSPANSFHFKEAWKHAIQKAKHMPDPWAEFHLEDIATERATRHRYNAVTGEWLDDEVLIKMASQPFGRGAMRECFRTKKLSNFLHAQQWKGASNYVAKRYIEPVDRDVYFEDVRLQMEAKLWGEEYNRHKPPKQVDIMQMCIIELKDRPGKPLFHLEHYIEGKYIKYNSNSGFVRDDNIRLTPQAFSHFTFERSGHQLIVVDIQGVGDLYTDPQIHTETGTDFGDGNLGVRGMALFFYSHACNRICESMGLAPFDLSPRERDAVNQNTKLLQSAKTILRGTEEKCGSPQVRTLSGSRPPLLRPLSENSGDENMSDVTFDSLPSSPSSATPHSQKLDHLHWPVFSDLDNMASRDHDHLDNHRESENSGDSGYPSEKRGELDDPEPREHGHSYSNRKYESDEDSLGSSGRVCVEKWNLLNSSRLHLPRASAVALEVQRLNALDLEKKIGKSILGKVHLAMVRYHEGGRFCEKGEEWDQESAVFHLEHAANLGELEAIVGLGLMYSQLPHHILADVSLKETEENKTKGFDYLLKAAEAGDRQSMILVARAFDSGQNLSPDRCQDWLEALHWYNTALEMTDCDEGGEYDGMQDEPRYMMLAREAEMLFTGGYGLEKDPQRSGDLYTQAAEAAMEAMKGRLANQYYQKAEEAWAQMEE

[5] = biological target: T2, Cyclin-dependent kinase 11A (Homo sapiens) (UniProt Q9UQ88); assay: Selectivity interaction (Ambit KINOMEscan and KiNATiv profiling in Jurkat cells) EUB0000090b CDK11A; type: cell-based; conditions: at 1 µM
T2 sequence (whole entry): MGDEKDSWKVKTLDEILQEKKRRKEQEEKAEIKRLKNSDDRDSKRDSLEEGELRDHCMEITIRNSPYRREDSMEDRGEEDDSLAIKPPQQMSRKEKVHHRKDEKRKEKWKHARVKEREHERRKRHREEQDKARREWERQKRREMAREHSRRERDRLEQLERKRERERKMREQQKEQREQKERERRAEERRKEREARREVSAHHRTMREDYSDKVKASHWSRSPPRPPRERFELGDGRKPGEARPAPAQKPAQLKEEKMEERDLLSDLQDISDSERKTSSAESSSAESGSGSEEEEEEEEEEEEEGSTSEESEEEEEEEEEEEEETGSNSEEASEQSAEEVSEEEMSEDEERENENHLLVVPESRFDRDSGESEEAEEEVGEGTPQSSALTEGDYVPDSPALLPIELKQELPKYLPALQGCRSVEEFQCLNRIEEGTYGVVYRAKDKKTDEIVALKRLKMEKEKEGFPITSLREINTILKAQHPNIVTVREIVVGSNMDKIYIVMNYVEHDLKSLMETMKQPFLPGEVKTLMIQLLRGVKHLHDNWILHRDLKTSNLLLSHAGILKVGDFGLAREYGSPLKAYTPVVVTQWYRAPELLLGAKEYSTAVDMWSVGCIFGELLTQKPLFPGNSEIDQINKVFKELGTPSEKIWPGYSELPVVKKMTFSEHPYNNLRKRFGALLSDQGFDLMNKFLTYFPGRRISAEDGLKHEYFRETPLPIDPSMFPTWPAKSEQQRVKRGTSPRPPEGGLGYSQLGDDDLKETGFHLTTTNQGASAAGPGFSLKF

[6] = biological target: T3, Dual serine/threonine and tyrosine protein kinase (Homo sapiens) (UniProt Q6XUX3); assay: Selectivity interaction (Ambit KINOMEscan and KiNATiv profiling in Jurkat cells) EUB0000090b DSTYK; type: cell-based; conditions: at 1 µM
T3 sequence (whole entry): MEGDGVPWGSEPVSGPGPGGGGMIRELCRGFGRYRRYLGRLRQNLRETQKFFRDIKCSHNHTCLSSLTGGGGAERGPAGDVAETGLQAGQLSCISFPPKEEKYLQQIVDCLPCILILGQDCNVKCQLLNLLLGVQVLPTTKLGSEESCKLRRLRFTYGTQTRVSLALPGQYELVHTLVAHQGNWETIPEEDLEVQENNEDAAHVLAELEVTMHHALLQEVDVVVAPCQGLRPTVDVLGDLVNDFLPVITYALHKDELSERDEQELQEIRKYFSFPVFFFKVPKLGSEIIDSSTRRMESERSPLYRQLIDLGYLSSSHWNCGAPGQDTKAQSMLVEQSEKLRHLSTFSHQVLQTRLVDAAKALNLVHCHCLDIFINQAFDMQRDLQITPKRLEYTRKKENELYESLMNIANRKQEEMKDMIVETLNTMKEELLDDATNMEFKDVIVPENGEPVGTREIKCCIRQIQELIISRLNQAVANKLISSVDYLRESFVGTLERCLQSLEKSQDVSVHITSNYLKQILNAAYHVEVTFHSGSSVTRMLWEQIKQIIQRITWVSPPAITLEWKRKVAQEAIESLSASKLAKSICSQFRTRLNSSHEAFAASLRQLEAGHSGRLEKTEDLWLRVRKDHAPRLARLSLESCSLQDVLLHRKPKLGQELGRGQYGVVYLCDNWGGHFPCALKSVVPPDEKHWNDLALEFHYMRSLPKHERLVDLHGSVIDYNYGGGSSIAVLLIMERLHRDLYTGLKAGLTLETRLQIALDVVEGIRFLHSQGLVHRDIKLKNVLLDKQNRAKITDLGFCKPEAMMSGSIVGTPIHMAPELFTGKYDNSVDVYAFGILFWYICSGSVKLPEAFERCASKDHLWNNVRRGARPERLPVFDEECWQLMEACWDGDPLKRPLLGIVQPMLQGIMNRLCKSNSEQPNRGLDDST

Fibroblast growth factor receptor 3, sequence (P22607 23-806 limits assumed): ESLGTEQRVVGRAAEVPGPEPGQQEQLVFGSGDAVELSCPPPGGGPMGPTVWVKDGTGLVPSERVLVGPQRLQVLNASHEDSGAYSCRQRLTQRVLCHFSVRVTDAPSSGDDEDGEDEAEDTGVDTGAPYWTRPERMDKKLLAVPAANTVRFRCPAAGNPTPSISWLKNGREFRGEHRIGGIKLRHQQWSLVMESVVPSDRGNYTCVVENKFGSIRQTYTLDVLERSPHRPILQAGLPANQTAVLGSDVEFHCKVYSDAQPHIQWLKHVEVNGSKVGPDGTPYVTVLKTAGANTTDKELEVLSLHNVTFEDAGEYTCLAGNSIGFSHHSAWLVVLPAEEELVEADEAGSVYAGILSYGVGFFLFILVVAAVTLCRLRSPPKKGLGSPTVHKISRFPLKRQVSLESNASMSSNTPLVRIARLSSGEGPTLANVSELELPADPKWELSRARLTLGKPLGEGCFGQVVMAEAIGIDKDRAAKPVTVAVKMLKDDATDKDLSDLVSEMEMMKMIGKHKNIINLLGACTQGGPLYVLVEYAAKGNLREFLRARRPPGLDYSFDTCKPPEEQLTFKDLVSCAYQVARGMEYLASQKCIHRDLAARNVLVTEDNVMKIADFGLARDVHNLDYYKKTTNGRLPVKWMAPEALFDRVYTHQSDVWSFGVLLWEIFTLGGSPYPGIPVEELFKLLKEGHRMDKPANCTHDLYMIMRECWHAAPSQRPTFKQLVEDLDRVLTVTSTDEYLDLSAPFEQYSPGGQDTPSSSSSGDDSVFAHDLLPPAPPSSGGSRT
Fibroblast growth factor receptor 3 (Homo sapiens), P22607 [G697C], sequence (P22607 whole entry G697C): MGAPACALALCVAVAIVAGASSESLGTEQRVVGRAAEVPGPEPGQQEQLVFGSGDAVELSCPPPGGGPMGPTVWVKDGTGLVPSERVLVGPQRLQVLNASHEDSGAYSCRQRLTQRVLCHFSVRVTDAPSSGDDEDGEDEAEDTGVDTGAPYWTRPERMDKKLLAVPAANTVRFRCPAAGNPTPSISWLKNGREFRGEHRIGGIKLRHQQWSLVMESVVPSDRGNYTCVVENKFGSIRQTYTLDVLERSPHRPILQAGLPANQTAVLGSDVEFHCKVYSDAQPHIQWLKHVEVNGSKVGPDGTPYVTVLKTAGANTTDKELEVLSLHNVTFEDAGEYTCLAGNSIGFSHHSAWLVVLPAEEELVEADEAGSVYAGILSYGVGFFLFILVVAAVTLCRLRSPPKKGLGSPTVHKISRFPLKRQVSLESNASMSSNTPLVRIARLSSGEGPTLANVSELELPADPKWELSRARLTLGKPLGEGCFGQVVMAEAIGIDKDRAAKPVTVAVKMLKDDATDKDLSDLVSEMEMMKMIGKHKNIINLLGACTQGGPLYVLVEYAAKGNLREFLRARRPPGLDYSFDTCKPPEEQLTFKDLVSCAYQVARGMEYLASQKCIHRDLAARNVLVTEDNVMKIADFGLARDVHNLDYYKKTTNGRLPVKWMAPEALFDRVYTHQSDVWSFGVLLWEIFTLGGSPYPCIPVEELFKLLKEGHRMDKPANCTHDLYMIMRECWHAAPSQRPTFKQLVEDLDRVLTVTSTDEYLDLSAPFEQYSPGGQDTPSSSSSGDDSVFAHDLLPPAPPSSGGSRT
Tyrosine-protein kinase Fes/Fps (Homo sapiens), sequence (P07332 whole entry): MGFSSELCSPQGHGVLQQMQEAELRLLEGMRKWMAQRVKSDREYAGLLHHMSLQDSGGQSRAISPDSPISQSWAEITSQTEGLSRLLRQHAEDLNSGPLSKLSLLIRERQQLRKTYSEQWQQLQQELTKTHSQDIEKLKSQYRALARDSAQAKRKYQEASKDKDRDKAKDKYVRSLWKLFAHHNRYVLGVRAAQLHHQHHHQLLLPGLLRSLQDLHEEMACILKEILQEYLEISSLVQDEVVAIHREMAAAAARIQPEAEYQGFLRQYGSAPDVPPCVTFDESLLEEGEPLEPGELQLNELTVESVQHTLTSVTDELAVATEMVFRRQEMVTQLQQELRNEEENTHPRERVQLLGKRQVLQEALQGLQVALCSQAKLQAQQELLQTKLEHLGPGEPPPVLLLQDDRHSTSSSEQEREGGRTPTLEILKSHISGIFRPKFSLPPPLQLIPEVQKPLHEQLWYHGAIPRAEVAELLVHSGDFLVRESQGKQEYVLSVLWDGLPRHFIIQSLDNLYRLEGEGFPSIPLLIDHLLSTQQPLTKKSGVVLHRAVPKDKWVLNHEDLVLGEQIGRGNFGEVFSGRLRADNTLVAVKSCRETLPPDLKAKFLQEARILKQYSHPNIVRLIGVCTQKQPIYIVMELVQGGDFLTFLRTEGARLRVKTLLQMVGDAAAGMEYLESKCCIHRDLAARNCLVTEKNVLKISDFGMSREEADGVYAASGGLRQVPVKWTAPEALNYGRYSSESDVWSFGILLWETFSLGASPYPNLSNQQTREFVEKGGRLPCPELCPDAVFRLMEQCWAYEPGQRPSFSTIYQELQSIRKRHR

**Q.** What does the source list for `Nc1cnc(N2CCc3cc(S(=O)(=O)Nc4c(F)cc(Cl)cc4F)cc(N4CCCC4=O)c32)nc1` [TP-020n]?
**A.** % of control [1]: 89%; % of control [2]: 100%

**Q.** `Cn1cc(-n2cnc3c(NCc4nc5cc(Cl)c(Cl)cc5[nH]4)nc(N4CCOCC4)nc32)cn1` was tested. Which % of control [3] did it give?
**A.** 3.47%

**Q.** Which results are given for `CC[C@@H]1[C@H](F)C(=O)N[C@@H]1COc1nccc2cc(C(N)=O)c(OC)cc12` [ZIMLOVISERTIB]?
**A.** % of inhibition ([4]; at 0.01 µM): 4.3%; % of inhibition ([4]; at 0.04 µM): -14.7%; % of inhibition ([4]; at 0.2 µM): 2.9%; % of inhibition ([4]; at 1 µM): -15.8%; % of inhibition ([4]; at 5 µM): -3.6%

**Q.** Which % of control [5] does the source give for `CN(C)C/C=C/C(=O)Nc1ccc(C(=O)N2CCCC(Nc3ncc(Cl)c(-c4c[nH]c5ccccc45)n3)C2)cc1` (stereo not given) here?
**A.** 95%

**Q.** And the % of control [6]?
**A.** 100%
